From patent US20250288571A1 (Nested Therapeutics, Inc., priority 2024, published 2025)
Values joined by “and” are separate entries in the source; they are usually repeats but may differ in a detail not shown here. Equal entries are not always repeated. Where two headings read alike, the source gives them in different places.

What was measured:
IPC298 cells = test: IPC298 Cell Titer Glow assay (CTG); details: for viability at 100 µM: read-out: CTG % cell viability 100 uM IPC298.2, IPC298 cells, 72 hours, 100 uM; for IC50: read-out: CTG IC50 (nM) Cell Line: IPC298.2
HCT116 cells = test: HCT116 Cell Titer Glow assay (CTG); details: for viability at 1000 µM: read-out: CTG % cell viability 1000 uM HCT116.20, HCT116 cells, 72 hours, 1000 uM; for viability at 1000 µM / CTG % cell viability 1000 uM HCT116.20: percent cells remaining after treatment; for IC50: read-out: CTG IC50 (nM) Cell Line: HCT116.20
[1] = Homo sapiens, IPC-298, 72 h, percent cells remaining after treatment

Structure (SMILES) | IC50 (HCT116 cells; Homo sapiens, HCT-116, 72 h) [nM] | IC50 (IPC298 cells; Homo sapiens, IPC-298, 72 h) [nM] | viability at 1000 µM (HCT116 cells; Homo sapiens, HCT-116, 72 h) [%] | also measured
CNS(=O)(=O)Nc1nccc(Cc2cncc(OC3CCC(C)CC3)c2C)c1F (single isomer, unassigned) [Example 74, 3-fluoro-4-[[4-methyl-5-(4-methylcyclohexoxy)-3-pyridyl]methyl]-N-(methylsulfamoyl)pyridin-2-amine] | > 1000 | > 1000 | 92.9 | viability at 100 µM (IPC298 cells; [1]): 88.6%
CNS(=O)(=O)Nc1nccc(Cc2cncc(-c3ccc(Cl)cc3F)c2C)c1F [Example 44, [(4-{[5-(4-chloro-2-fluorophenyl)-4-methylpyridin-3-yl]methyl}-3-fluoropyridin-2-yl)sulfamoyl](methyl)amine] | > 1000 | 10 to 100 | 28 | 
CNS(=O)(=O)Nc1ccc(Cc2cncc(Oc3ncc(Cl)cc3F)c2C)cn1 [Example 46, 5-[[5-[(5-chloro-3-fluoro-2-pyridyl)oxy]-4-methyl-3-pyridyl]methyl]-N-(methylsulfamoyl)pyridin-2-amine] | > 1000 | > 1000 |  | CTG % cell viability 1000 uM IPC298.2 (IPC298 cells; IPC298 cells, 72 hours, 1000 uM, percent cells remaining after treatment): 19.34%; CTG % cell viability 1000 uM HCT116.20 (HCT116 cells; HCT116 cells, 72 hours): 82.81, % and 79.54%
CNS(=O)(=O)Nc1ccc(Cc2cncc(Oc3ncc(Cl)cc3F)c2C)cn1 [Example 48, 5-[[5-[(5-chloro-3-fluoro-2-pyridyl)oxy]-4-methyl-3-pyridyl]methyl]-N-(methylsulfamoyl)pyridin-2-amine] |  |  |  | IC50 (IPC298 cells; IPC298 cells, 72 hours): > 1000 nM; CTG % cell viability 1000 uM HCT116.20 (HCT116 cells; HCT116 cells, 72 hours): 17.49%; IC50 (HCT116 cells; HCT116 cells, 72 hours): > 1000 nM
CNS(=O)(=O)Nc1nccc(Cc2cncc(Cc3ccc(Cl)cc3F)c2C)c1F [Example 50, {[4-({5-[(4-chloro-2-fluorophenyl)methyl]-4-methylpyridin-3-yl}methyl)-3-fluoropyridin-2-yl]sulfamoyl}(methyl)amine] | 500 to 1000 | 10 to 100 |  | 
CNS(=O)(=O)Nc1nccc(Cc2cncc(Oc3cccc(Cl)c3F)c2)c1F [Example 54, 4-[[5-(3-chloro-2-fluoro-phenoxy)-3-pyridyl]methyl]-3-fluoro-N-(methylsulfamoyl)pyridin-2-amine] | > 1000 | > 1000 | 81.2 | viability at 1000 µM (IPC298 cells; Homo sapiens, IPC-298, 72 h, read-out: CTG % cell viability 1000 uM IPC298.2, IPC298 cells, 72 hours, 1000 uM, percent cells remaining after treatment): 70.1%
CNS(=O)(=O)Nc1nccc(Cc2cncc(Nc3ncccn3)c2C)c1F [Example 55, N-[5-[[3-fluoro-2-(methylsulfamoylamino)-4-pyridyl]methyl]-4-methyl-3-pyridyl]pyrimidin-2-amine] | > 1000 |  | 80.9 | 
CNS(=O)(=O)Nc1nccc(Cc2cncc(-c3cc(Cl)ccc3F)c2C)c1F [Example 56, [(4-{[5-(5-chloro-2-fluorophenyl)-4-methylpyridin-3-yl]methyl}-3-fluoropyridin-2-yl)sulfamoyl](methyl)amine] | 100 to 500 | < 10 |  | 
CNS(=O)(=O)Nc1nccc(Cc2cncc(-c3cccc(Cl)c3F)c2C)c1F [Example 57, [(4-{[5-(3-chloro-2-fluorophenyl)-4-methylpyridin-3-yl]methyl}-3-fluoropyridin-2-yl)sulfamoyl](methyl)amine] | > 1000 | 10 to 100 | 56.8 | CTG % cell viability 1000 uM HCT116.20 (HCT116 cells; HCT116 cells, 72 hours): 45.51%
CNS(=O)(=O)Nc1nccc(Cc2cncc(-n3ccc4cc(Cl)ccc43)c2)c1F [Example 59, [(4-{[5-(5-chloroindol-1-yl)pyridin-3-yl]methyl}-3-fluoropyridin-2-yl)sulfamoyl](methyl)amine] | 100 to 500 | 10 to 100 |  | 
C#Cc1cnc(Nc2cncc(Cc3ccnc(NS(=O)(=O)NC)c3F)c2C)c(F)c1 [Example 60, 4-[[5-[(5-ethynyl-3-fluoro-2-pyridyl)amino]-4-methyl-3-pyridyl]methyl]-3-fluoro-N-(methylsulfamoyl)pyridin-2-amine] | 100 to 500 | < 10 |  | 
CNS(=O)(=O)Nc1nccc(Cc2cncc(Nc3ncc(Cl)cc3F)c2C)c1F [Example 62, 4-[[5-[(5-chloro-3-fluoro-2-pyridyl)amino]-4-methyl-3-pyridyl]methyl]-3-fluoro-N-(methylsulfamoyl)pyridin-2-amine] | > 1000 | 10 to 100 | 46.4 | 
CNS(=O)(=O)Nc1nccc(Cc2cncc(O[C@H]3CC[C@H](C)CC3)c2C)c1F [Example 63, 3-fluoro-4-[[4-methyl-5-(4-methylcyclohexoxy)-3-pyridyl]methyl]-N-(methylsulfamoyl)pyridin-2-amine] | > 1000 | > 1000 | 71.5 | viability at 100 µM (IPC298 cells; [1]): 62.4%

More lines, main results first:

IC50 (HCT116 cells; Homo sapiens, HCT-116, 72 h) [nM] | Structure (SMILES) | IC50 (IPC298 cells; Homo sapiens, IPC-298, 72 h) [nM] | viability at 1000 µM (HCT116 cells; Homo sapiens, HCT-116, 72 h) [%] | also measured
10 to 100 | CNS(=O)(=O)N1CCc2c(Cc3cncc(Nc4ccc(Cl)cc4F)c3C)ccnc21 [Example 43, 4-({5-[(4-chloro-2-fluorophenyl)amino]-4-methylpyridin-3-yl}methyl)-N-methyl-2H,3H-pyrrolo[2,3-b]pyridine-1-sulfonamide] | < 10 |  | 
10 to 100 | CNS(=O)(=O)Nc1nccc(Cc2cncc(Nc3ccc(Cl)cc3F)c2C)c1OC [Example 45, 4-[[5-(4-chloro-2-fluoro-anilino)-4-methyl-3-pyridyl]methyl]-3-methoxy-N-(methylsulfamoyl)pyridin-2-amine] |  |  | 
< 10 | CNS(=O)(=O)Nc1nccc(Cc2cncc(Nc3ccc(C4CC4)cc3F)c2C)c1F [Example 47, 4-[[5-(4-cyclopropyl-2-fluoro-anilino)-4-methyl-3-pyridyl]methyl]-3-fluoro-N-(methylsulfamoyl)pyridin-2-amine] | < 10 |  | 
10 to 100 | CNS(=O)(=O)Nc1nccc(Cc2cncc(Oc3ccc(Cl)cc3F)c2C)c1F [Example 49, [(4-{[5-(4-chloro-2-fluorophenoxy)-4-methylpyridin-3-yl]methyl}-3-fluoropyridin-2-yl)sulfamoyl](methyl)amine] | < 10 |  | 
100 to 500 | CNS(=O)(=O)Nc1nccc(Cc2cncc(Oc3ccc(C(F)(F)F)cc3F)c2C)c1F [Example 51, 3-fluoro-4-[[5-[2-fluoro-4-(trifluoromethyl)phenoxy]-4-methyl-3-pyridyl]methyl]-N-(methylsulfamoyl)pyridin-2-amine] |  |  | 
100 to 500 | CNS(=O)(=O)Nc1nccc(Cc2cnnc(Nc3ccc(Cl)cc3F)c2C)c1F [Example 52, N-(4-chloro-2-fluoro-phenyl)-5-[[3-fluoro-2-(methylsulfamoylamino)-4-pyridyl]methyl]-4-methyl-pyridazin-3-amine] | < 10 |  | 
10 to 100 | CNS(=O)(=O)Nc1nccc(Cc2cncc(Nc3ccc(Cl)cc3F)c2C)n1 [Example 53, 4-[[5-(4-chloro-2-fluoro-anilino)-4-methyl-3-pyridyl]methyl]-N-(methylsulfamoyl)pyrimidin-2-amine] |  |  | 
< 10 | CNS(=O)(=O)Nc1nccc(Cc2cncc(Nc3ccc(C(C)C)cc3F)c2C)c1F [Example 58, 3-fluoro-4-[[5-(2-fluoro-4-isopropyl-anilino)-4-methyl-3-pyridyl]methyl]-N-(methylsulfamoyl)pyridin-2-amine] | < 10 |  | 
10 to 100 | CNS(=O)(=O)Nc1nccc(Cc2cncc(Oc3ccc(C(F)F)cc3F)c2C)c1F [Example 65, 4-[[5-[4-(difluoromethyl)-2-fluoro-phenoxy]-4-methyl-3-pyridyl]methyl]-3-fluoro-N-(methylsulfamoyl)pyridin-2-amine] | < 10 |  | 
